Source: EPA's ToxValDB 9.5 (doi:10.2903/j.efsa.2018.5140)
Several values for one entry are separate records, joined by “and”; a condition that tells them apart may be missing. Equal entries are not always repeated.

Legend:
Colinus virginianus = conditions: for LD50: acute, oral, mortality
Aphidius rhopalosiphi = assay: LR50; higher = less toxic; conditions: acute; mortality
Apis mellifera = conditions: acute, mortality
Canidae = conditions: oral, Dog Other, hematological
Pimephales promelas = conditions: chronic/long-term; duration: 28 days
Oncorhynchus mykiss = conditions: acute; duration: 96 hours; mortality
Neomysis kadiakensis = conditions: chronic/long-term; duration: 28 days; reproduction
Folsomia candida = conditions: chronic/long-term; duration: 28 days; reproduction

Compound | LD50 (Colinus virginianus) | LC50 (Rattus norvegicus; acute, M, mortality) [mg/kg] | LD50 (Rattus norvegicus; acute, oral, F, mortality) [mg/kg] | LR50 (Aphidius rhopalosiphi) [g/ha] | NOAEL (Colinus virginianus; reproduction developmental) [mg/kg-day] | LD50 (Apis mellifera; dermal) [µg/piece] | LD50 (Apis mellifera; oral, unspecified) [µg/piece] | LD50 (Rattus norvegicus; acute, oral, mortality) [mg/kg-day] | NOAEL (Rattus norvegicus; chronic) [mg/kg-day] | NOAEL (Rattus norvegicus; chronic, duration: 2 years, hematological) [mg/kg-day] | NOAEL (Rattus norvegicus; reproduction developmental, body weight) [mg/kg-day] | NOAEL (Rattus norvegicus; subchronic, duration: 90 days, oral, hematological) | NOAEL (Rattus norvegicus; subchronic, oral, hematological) [mg/kg-day] | LOAEL (Canidae; chronic, duration: 1 years) [mg/kg-day] | LOAEL (Canidae; subchronic, duration: 90 days) [mg/kg-day] | NOEC (Pimephales promelas) [mg/L] | LC50 (Oncorhynchus mykiss) [µg/mL] | NOEC (Neomysis kadiakensis) [mg/L] | NOEC (Folsomia candida) [mg/kg]
COC(=O)[C@@]12Cc3cc(Cl)ccc3C1=NN(C(=O)Nc1ccc(OC(F)(F)F)cc1)CO2 | 1750 mg/kg | 52 | 39 |  |  |  |  |  |  |  |  |  |  |  |  |  |  |  | 
COC(=O)N(C(=O)N1CO[C@@]2(C(=O)OC)Cc3cc(Cl)ccc3C2=N1)c1ccc(OC(F)(F)F)cc1 [Indoxacarb] | 73.5 mg/kg-day |  |  | 5.1 | 56.8 | 0.0682 | 0.232 | 146 | 0.6 | 1.04 | 0.5 | 0.68 mg/kg-day and 0.99 mg/kg-day | 0.76 | 1.1 | 1 | 0.0675 | > 0.17 | 0.0138 | 1
